Test results: US8765755B2, “N-containing heterocyclic compounds” (YM Biosciences Australia Pty Ltd, priority 2007, dated 2014)

Key:
BAF3wt = experiment: Cellular screening, BaF3 wild-type cells (Alamar Blue); assay type: cell-based; details: Mus musculus, 40 hr incubation
In short: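 BaF3 wild-type cells grown in DMEM with 10% FCS and 10% WEHI 3B conditioned medium, incubated with compound for 40 h at 37 °C, 5% CO2. Viability read by Alamar Blue after a further 4-6 h, at 544 nm; screening concentration 20 μM in dilution plate.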

CTLL2 = experiment: Cellular screening, CTLL2 cells (Alamar Blue); assay type: cell-based; details: Mus musculus, CTLL-2, 40 hr incubation
In short: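 CTLL2 cells in late log phase were incubated with compounds, from screening plates at 20 μM, for 40 hr at 37° C, 5% CO2. Viability was read by Alamar Blue, added for a further 4-6 hours, with the read at 544 nm.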

human JAK2 = biological target: T1, human JAK2 (Homo sapiens, UniProt O60674); experiment: JAK2 kinase enzyme assay (Alphascreen); assay type: biochemical; details: 80 or 625 um ATP
T1 construct: The kinase domain of human JAK2 was amplified; GST (N); made in house; host or cells: Sf9 (Spodoptera frugiperda) insect cells, baculovirus
In short: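 Compounds at 5 μM final were pre-incubated 20 min with Sf9-expressed GST-JAK2 kinase domain in HEPES pH 7.5 phosphotyrosine buffer, then incubated 60 or 90 min with 80 or 625 um ATP. Substrate was biotinylated peptide 1 (111 μM final) or peptide 2 (133 μM final). Phosphotyrosine was detected by AlphaScreen acceptor/streptavidin donor beads after 2–3 h.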

BafT_J3 = experiment: Cellular screening, BaF3 TEL:JAK3 cells (Alamar Blue); assay type: cell-based; details: Mus musculus, 40 hr incubation
In short: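 Growth-factor-independent BaF3 tet-off cells express a TEL(nt 1–487)/JAK3 kinase-domain fusion and are grown without WEHI 3B medium. Compound plates were prepared at 20 μM and added as 10× final. After 40 h at 37 °C, 5% CO2, Alamar Blue was added for 4–6 h and read at 544 nm.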

human JAK1 = biological target: T2, human JAK1 (Homo sapiens, UniProt P23458); experiment: JAK1 kinase enzyme assay (Alphascreen); assay type: biochemical; details: 80 or 625 um ATP
T2 construct: The kinase domain of human JAK1 was amplified; GST (N); made in house; host or cells: Sf9 (Spodoptera frugiperda) insect cells, baculovirus
Protocol: For screening purposes, compounds (in 100% DMSO) were warmed at 37 degrees for at least 20 minutes before use. A […] stock was initially made in assay buffer, where the final concentration of DMSO was 0.3%. The stocks were then diluted in 384 well Optiplates (Packard) where the final concentration of the compound was 5 μM.
The kinase domain of human JAK1 was amplified from U937mRNA using the polymerase chain reaction with the following primers: […]
The JAK1 PCR products were cloned into the pDest20 destination vector (Gibco). The JAK1 plasmid was then transformed into competent DH10Bac cells (Gibco), and the recombinant baculovirus was prepared via Sf9 insect cell transfection.
Baculovirus preparations from each of the JAK family members were infected into one litre of Sf9 (Spodoptera frugiperda) cells (Invitrogen) grown in SF900II serum free medium (Invitrogen) to a cell density of approximately 2×10^6 cells/ml. Cells were infected with virus at a cell culture to virus stock ratio of 20:1. Cells were harvested and lysed 48 hours post infection. The GST-tagged JAK kinase domains were purified by affinity chromatography on a GSH agarose column (Scientifix).
Kinase assays were performed in 384 well Optiplates (Packard) using an Alphascreen Protein Tyrosine KinaseP100 detection kit The compounds were pre-incubated with affinity purified PTK domain in the presence of phosphotyrosine assay buffer (10 mM HEPES, pH 7.5, 100 mM MgCl2, 25 mM NaCl, 200 mM sodium vanadate and 0.1% Tween 20) for 20 minutes. The compounds were then incubated with substrate in the presence of either 80 or 625 um ATP for 60 or 90 minutes. The substrate used was either susbtrate-1 with the sequence biotin-EGPWLEEEEEAYGWMDF-NH2 [SEQ. ID. NO. 13] (final concentration 111 μM) or susbtrate-2 substrate with the sequence biotin-EQEDEPEGDYFEWLEPE (final concentration 133 μM). Alphascreen phosphotyrosine acceptor beads followed by streptavidin donor beads at a concentration of 1/100 in stop buffer were added to each well under subdued light and incubated for 2-3 hours. The Alphascreen plates were read on a Packard Fusion Alpha instrument.

human JAK3 = biological target: T3, human JAK3 (Homo sapiens, UniProt P52333); experiment: JAK3 kinase enzyme assay (Alphascreen); assay type: biochemical; details: 80 or 625 um ATP
T3 construct: The kinase domain of human JAK3 was amplified; GST (N); made in house; host or cells: Sf9 (Spodoptera frugiperda) insect cells, baculovirus
In short: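 Sf9-expressed GST-tagged human JAK3 kinase domain was pre-incubated 20 min with compound at 5 μM final in HEPES pH 7.5 buffer. Then 60 or 90 min reaction with 80 or 625 μM ATP and biotinylated peptide substrate at 111 or 133 μM. AlphaScreen phosphotyrosine acceptor and streptavidin donor beads, 2–3 h.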

BafT_J2 = experiment: Cellular screening, BaF3 TEL:JAK2 cells (Alamar Blue); assay type: cell-based; details: Mus musculus, 40 hr incubation
In short: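 BaF3 cells expressing a TEL–JAK2 kinase-domain fusion, growth-factor independent, were exposed to compounds for 40 hr at 37° C, 5% CO2. Screening concentration was 20 μM in the dilution plate, added as 10× final. Viability read with Alamar Blue after a further 4-6 h, at 544 nm.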

T1 sequence (O60674 849-1124 limits assumed): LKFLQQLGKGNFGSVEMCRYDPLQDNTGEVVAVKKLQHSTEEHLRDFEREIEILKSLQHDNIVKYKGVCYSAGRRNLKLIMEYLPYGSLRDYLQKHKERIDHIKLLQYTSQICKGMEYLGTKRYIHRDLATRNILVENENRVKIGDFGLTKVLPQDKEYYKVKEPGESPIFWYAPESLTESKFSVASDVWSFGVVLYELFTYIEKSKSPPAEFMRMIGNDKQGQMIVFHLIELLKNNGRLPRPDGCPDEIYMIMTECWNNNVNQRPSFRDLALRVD
T3 sequence (P52333 822-1111 limits assumed): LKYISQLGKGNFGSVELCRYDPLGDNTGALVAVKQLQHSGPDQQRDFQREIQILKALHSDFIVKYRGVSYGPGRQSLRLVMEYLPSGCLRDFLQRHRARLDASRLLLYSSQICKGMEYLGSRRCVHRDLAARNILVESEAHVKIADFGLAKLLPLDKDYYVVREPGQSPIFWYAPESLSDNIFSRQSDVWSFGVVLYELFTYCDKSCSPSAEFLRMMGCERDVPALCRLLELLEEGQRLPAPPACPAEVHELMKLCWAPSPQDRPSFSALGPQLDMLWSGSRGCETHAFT
T2 sequence (P23458 875-1153 limits assumed): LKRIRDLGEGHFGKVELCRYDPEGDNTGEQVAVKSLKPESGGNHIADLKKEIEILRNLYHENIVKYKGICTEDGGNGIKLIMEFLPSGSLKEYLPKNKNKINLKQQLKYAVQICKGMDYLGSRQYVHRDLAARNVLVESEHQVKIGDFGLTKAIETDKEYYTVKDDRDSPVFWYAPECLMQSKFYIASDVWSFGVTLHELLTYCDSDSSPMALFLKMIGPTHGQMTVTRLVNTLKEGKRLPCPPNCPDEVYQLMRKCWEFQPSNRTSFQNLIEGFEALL

SMILES	IC50 (BAF3wt)	IC50 (CTLL2)	IC50 (human JAK2)	IC50 (BafT_J3)	IC50 (human JAK1)	IC50 (human JAK3)	IC50 (BafT_J2)	IC50 (BAF3wt; given as number)	IC50 (CTLL2; given as number)	IC50 (BafT_J3; given as number)
NS(=O)(=O)c1ccc(-c2csc3cnc(Nc4ccc(N5CCOCC5)cc4)nc23)cc1 [Compound 11, 4-(2-(4-morpholinophenylamino)thieno[3,2-d]pyrimidin-7-yl)benzenesulfonamide]	< 5 µM	< 1 µM	< 0.1 µM	< 5 µM	< 0.1 µM	< 0.1 µM	< 1 µM	–	–	–
CCNC(=O)Nc1ccc(-c2csc3cnc(Nc4ccc(N5CCOCC5)cc4)nc23)cc1OC [Compound 13, 1-ethyl-3-(2-methoxy-4-(2-(4-morpholinophenylamino)thieno[3,2-d]pyrimidin-7-yl)phenyl)urea]	< 1 µM	< 5 µM	< 0.1 µM	< 5 µM	< 0.5 µM	< 0.1 µM	< 1 µM	–	–	–
CS(=O)(=O)Nc1ccc(-c2csc3cnc(Nc4ccc(N5CCOCC5)cc4)nc23)cc1 [Compound 14, N-(4-(2-(4-morpholinophenylamino)thieno[3,2-d]pyrimidin-7-yl)phenyl)methanesulfonamide]	< 1 µM	< 1 µM	< 0.1 µM	< 1 µM	< 0.1 µM	< 0.1 µM	< 1 µM	–	–	–
COc1cc(-c2csc3cnc(Nc4ccc(N5CCOCC5)cc4)nc23)ccc1O [Compound 15, 2-methoxy-4-(2-(4-morpholinophenylamino)thieno[3,2-d]pyrimidin-7-yl)phenol]	–	–	< 0.1 µM	–	< 0.1 µM	< 0.1 µM	< 1 µM	> 20 µM	> 20 µM	> 20 µM
N#CCC(=O)Nc1cccc(-c2csc3cnc(Nc4ccc(N5CCOCC5)cc4)nc23)c1 [Compound 16, 2-cyano-N-(3-(2-(4-morpholinophenylamino)thieno[3,2-d]pyrimidin-7-yl)phenyl)acetamide]	< 1 µM	< 1 µM	< 0.1 µM	< 1 µM	< 0.1 µM	< 0.1 µM	< 1 µM	–	–	–
CS(=O)(=O)Nc1cccc(-c2csc3cnc(Nc4ccc(N5CCOCC5)cc4)nc23)c1 [Compound 18, N-(3-(2-(4-morpholinophenylamino)thieno[3,2-d]pyrimidin-7-yl)phenyl)methanesulfonamide]	< 1 µM	< 1 µM	< 0.1 µM	< 1 µM	< 0.1 µM	< 0.1 µM	< 1 µM	–	–	–
CS(=O)(=O)N(CC#N)c1cccc(-c2csc3cnc(Nc4ccc(N5CCOCC5)cc4)nc23)c1 [Compound 31, N-(cyanomethyl)-N-(3-(2-(4-morpholinophenylamino)thieno[3,2-d]pyrimidin-7-yl)phenyl)methanesulfonamide]	< 1 µM	< 1 µM	< 0.1 µM	< 1 µM	< 0.1 µM	< 0.1 µM	< 1 µM	–	–	–
Cn1cc(-c2ccc(S(N)(=O)=O)cc2)c2nc(Nc3ccc(N4CCOCC4)cc3)ncc21 [Compound 34, 4-(5-methyl-2-(4-morpholinophenylamino)-5H-pyrrolo[3,2-d]pyrimidin-7-yl)benzenesulfonamide]	< 20 µM	–	< 0.1 µM	–	< 0.1 µM	< 0.5 µM	< 1 µM	–	> 20 µM	> 20 µM
CC(C)(C)NS(=O)(=O)c1cccc(-c2csc3cnc(Nc4cccc(N5CCOCC5)c4)nc23)c1 [Compound 47, N-tert-butyl-3-(2-(3-morpholinophenylamino)thieno[3,2-d]pyrimidin-7-yl)benzenesulfonamide]	< 5 µM	< 5 µM	< 0.1 µM	< 5 µM	< 0.1 µM	< 0.5 µM	< 5 µM	–	–	–
CC(C)(C)NS(=O)(=O)c1cccc(-c2csc3cnc(Nc4cccc(CO)c4)nc23)c1 [Compound 48, N-tert-butyl-3-(2-(3-(hydroxymethyl)phenylamino)thieno[3,2-d]pyrimidin-7-yl)benzenesulfonamide]	< 1 µM	< 1 µM	< 0.1 µM	< 1 µM	< 0.1 µM	< 0.5 µM	< 1 µM	–	–	–
COc1cc(Nc2ncc3scc(-c4cccc(S(=O)(=O)NC(C)(C)C)c4)c3n2)cc(OC)c1OC [Compound 50, N-tert-butyl-3-(2-(3,4,5-trimethoxyphenylamino)thieno[3,2-d]pyrimidin-7-yl)benzenesulfonamide]	< 1 µM	< 1 µM	< 0.1 µM	< 1 µM	< 0.1 µM	< 0.5 µM	< 1 µM	–	–	–
COc1ccc(Nc2ncc3scc(-c4cccc(S(=O)(=O)NC(C)(C)C)c4)c3n2)cc1OC [Compound 53, N-tert-butyl-3-(2-(3,4-dimethoxyphenylamino)thieno[3,2-d]pyrimidin-7-yl)benzenesulfonamide]	< 1 µM	< 5 µM	< 0.1 µM	< 1 µM	< 0.1 µM	< 0.5 µM	< 1 µM	–	–	–
